Source: US20250243160A1, “INDOLE DERIVATIVES FOR TARGETING AUTOPHAGY” (Automera PTE. LTD, priority 2024, published 2025)

What was measured:
LC3 protein = experiment: LC3 lipidation (LC3-II/LC3-I) assay by Western blot in HeLa cells; type: cell-based; conditions: 24 hours treatment, relative to vehicle control (DMSO)
Protocol: HeLa cells were seeded in 6-well plates (700,000 cells) and allowed to adhere overnight. Media was replaced one hour before administering either vehicle (DMSO) or test compounds. After 24 hours of treatment, the media was discarded, and cells were rinsed once with ice-cold 1×PBS before detached from plates with ice-cold RIPA Lysis and Extraction Buffer (Thermo Fisher Scientific) which was supplemented with protease and phosphatase inhibitors. The resulting cell suspensions were transferred to pre-chilled microcentrifuge tubes, incubated on ice for 20 min with intermittent mixing and then centrifuged at 12,000 rpm for 20 min at 4° C. The supernatants were then aspirated slowly and transferred into new tubes kept on ice. The protein concentration in the samples was determined using BCA kit (Thermo Fisher Scientific) as per manufacturer's instructions.
For the p62 oligomerization and LC3 lipidation assays, cell lysates were prepared using RIPA buffer supplemented with 2% SDS and benzonase (Sigma). The lysates were then combined with 4× Laemmli protein sample buffer (Bio-Rad), heated at 70° C. for 10 min and subjected to a brief centrifugation of 10-15 seconds.
For p62 oligomerization and LC3 lipidation assays, lysates containing 30 μg of protein and for BRD4 and FKBP12(F36V) degradation assays, lysates containing 20 μg of protein, were loaded slowly into the wells of 4-20% gradient Tris-glycine gels (Bio-Rad). The gels were run at 100V until completion and transferred onto PVDF membranes. Membranes were blocked using 5% milk in TBS-Tween (0.1%) buffer at room temperature for 1 hour. The membranes were incubated with primary antibody in 5% milk-TBST with shaking, overnight at 4° C. The primary antibodies used were: p62 (Novus Biologicals 2C11, H00008878-MO1), LC3A/B (Cell Signalling Technology D3U4C, 12741S), FKBP12 (Abcam ab24373), BRD4 (Cell Signalling Technology E2A7X, 13440S), GAPDH (Cell Signalling Technology D4C6R, 97166S), and β-Actin (Proteintech 66009-1-Ig). Following primary antibody incubation, membranes were washed thrice with TBST 10 min before and after incubation with secondary-HRP conjugated antibody in 5% milk-TBST for 1 hour at room temperature. The secondary antibodies used were: Anti-Mouse IgG HRP Conjugate (Promega W4021B) and Anti-Rabbit IgG HRP Conjugate (Promega W4011). For the p62 oligomerization assay, the total protein levels were assessed using Ponceau staining (Thermo Fisher Scientific) of PVDF membrane as per recommendation by manufacturer's guidelines.
Imaging was acquired using SuperSignal™ West Pico PLUS Chemiluminescent Substrate (Thermo Fisher Scientific) with iBright Invitrogen FL100 imaging system. Band signal intensity, reflective of protein concentrations, were quantified using Invitrogen™ iBright™ Analysis and Image J software.
HeLa cells were treated with compounds for 24 hours to evaluate the effect of these compounds on LC3-II/LC3-I levels, a measure of autophagy activation. The changes in levels of LC3-I, LC3-II and […] (loading control) were assessed by Western blotting, as described in experimental procedures. The fold increase of LC3-II/LC3-I levels induced by compound treatment relative to vehicle control (DMSO) was determined and summarized in Table 9. Specifically, FIGS. 3A-C show Western blot images and their corresponding quantification showing the lipidation levels of LC3 protein (LC3-II/LC3-I) by 24 hours compound treatments at listed concentrations, relative to vehicle control (DMSO) in HeLa cells.

p62 puncta = p62 puncta immunocytochemistry imaging in HeLa cells; type: cell-based; conditions: 24 hours treatment, relative to vehicle control (DMSO)
Outline: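 Following 24 h compound or DMSO treatment, HeLa cells were fixed and immunostained for p62 with DAPI counterstain. Puncta counted by imaging on EVOS M7000 (20× objective) or Operetta CLS (63× water objective); reported as fold change versus DMSO.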

OCCNCc1cc(F)cc2c1ccn2Cc1ccc(Cl)cc1 [Compound 45, 2-(((1-(4-chlorobenzyl)-6-fluoro-1H-indol-4-yl)methyl)amino)ethan-1-ol]
LC3 lipidation (fold increase of LC3-II/LC3-I levels) (LC3 protein): ++ (>2-fold change in LC3-II/LC3-I relative to DMSO control) | p62 puncta (fold change of p62 puncta levels) (p62 puncta): ++ (>2-fold change in p62 puncta levels relative to DMSO control)

OCCNCc1cccc2c1ccn2Cc1ccccc1 [Compound 1, 2-(((1-benzyl-1H-indol-4-yl)methyl)amino)ethan-1-ol]
LC3 lipidation (fold increase of LC3-II/LC3-I levels) (LC3 protein): + (<2-fold change in LC3-II/LC3-I relative to DMSO control) | p62 puncta (fold change of p62 puncta levels) (p62 puncta): + (<2-fold change in p62 puncta levels relative to DMSO control)

OCCNCc1cc(F)cc2c1ccn2Cc1ccc(F)cc1 [Compound 44]
LC3 lipidation (fold increase of LC3-II/LC3-I levels) (LC3 protein): ++ (>2-fold change in LC3-II/LC3-I relative to DMSO control) | p62 puncta (fold change of p62 puncta levels) (p62 puncta): ++ (>2-fold change in p62 puncta levels relative to DMSO control)
